What was measured:
[1] = tested on: hamster kidney fibroblast cells BHK-21; assay: SCIFI/SOMI endpoint (snapshot) imaging assay of in vitro hamster kidney cells treated with a drug or imaging agent; format: cell-based, Syrian golden hamster
Method: Next, the interaction between in vitro hamster kidney cells with a drug or imaging agent were evaluated.
Power-dependent “imaging” experiments were conducted on the prepared solutions and coverslip across the six colors by an excitation that would be standardized for biological imaging. […] For the 6-color SOMI images (1024×1024 pixels) collected from a biological sample, the raw intensity image of each color was converted into a photon-count image (unit: photon/pulse) using the established (calibrated) relation for that color at the same photomultiplier gain. Then, some (2-72) discernable single cells or cell clusters were manually segmented in the 6-color photon-count images. Finally, the SOMI intensity profiles of segmented single cells (or cell clusters) averaged over the corresponding pixels were obtained after a background subtraction. Specifically, the background of the culture medium in the empty space among the segmented cells was subtracted for 2D cell culture samples while the background with blocked illumination was subtracted for all 3D (tissue) samples.
In contrast to reductionism-based imaging, the lack of FLIM capability for general fluorescence imaging presented another challenge that may have contributed to the low popularity of comparative systems biology-based imaging strategies. Due to the high dynamic range of SOMI in gentle biological imaging, comparative photon counting of FLIM with low dynamic range (<0.2 photon/pulse, typically) cannot be used. To recover this capability, time-resolved photon counts were determined using computational photon counting, which provides single-photon accuracy for signals with high dynamic range. The output of three analog output photomultipliers for 4PAF, 3PAF, and 2PAF was optionally amplified with a high-speed transimpedance amplifier (C5594, Hamamatsu), and digitized at 2 GS/s with a high-speed digitizer (ATS9373, AlazarTech). Digitized values were saved, and photon-counting and lifetime information was computed in post-processing using custom MATLAB scripts (Mathworks). FLIM for the 2PAF and 3PAF colors were validated using NADH, FAD, and other standard dyes. To calibrate computational photon counting for 4PAF, Trp solutions from 0 to 50 mM were examined and a single-photon peak threshold was determined based on the peak height histogram to ensure a linear relationship between intensity and concentration over this range. After computational photon counting, mean fluorescence lifetime and phasor components g and s were determined by phasor analysis. For single-cell quantification, all fluorescence decays within a segmented cell were summed together, and one mean fluorescence lifetime was estimated from the total decay, along with one g and one s value.
(§1) In the above experiments (e.g., in the procedures used to generate the images described above), the following materials and methods were provided or performed. Adherent Syrian golden hamster kidney fibroblast cells BHK-21 (clone 13, ATCC CCL-10) were cultured in phenol red-free Eagle's Minimum Essential Medium (EMEM) supplemented with 10% FBS, 1% penicillin-streptomycin-amphotericin B (PSA), and 2.5 mM L-Glutamine at 37° C. under 5% CO2, and atmospheric O2 conditions. Before imaging, 1 mL of trypsinized cells was resuspended in 1 mL of 1×TrypLE™ Select Enzyme cell dissociation reagent (TFS, Cat #12563029). The cells were plated on poly-D-lysine coated 35-mm diameter glass-bottom imaging dishes and maintained inside a humidified incubator with 5% CO2 and 21% O2 conditions at 37° C. The incubation time varied between 1-6 hours while the culture media might be supplemented with specific drugs or labeling agents at […] concentrations. The cells were imaged within 10 min of being taken out of the incubator.

live BHK-21 cells [2] = assay: time-lapse kinetic imaging assay (single-cell pharmacokinetic SOMI) of hamster kidney cells after transient exposure; conditions: for cellular uptake by endocytosis via THG-visible nanovesicles: comparative kinetic assays of two mitochondrial uncouplers
Method: as §1
Large area or 3D SOMI was enabled by a motorized sample stage. Without moving the stage, time-lapse imaging of dynamic phenomenon or frame-averaged imaging of static samples were conducted in a constant field-of-view. Single-cell pharmacokinetics imaging was performed in a time-lapse SOMI of 200-frame period at the center of a 35-mm diameter glass-bottom imaging culture dish with 2 mL culture media of live BHK-21 cells. During the imaging near the 50-frame timepoint, 0.1 mL of preprepared concentrated solution of a drug (BAM15/FCCP) or labeling agent (AP3) was injected in ˜1 s by a mounted pipette into the center of the dish, attaining an ending/equilibrium concentration of […]. The fluorescence from AP3 in a segmented empty space among the cells was used to detect the transient concentration profile of injected drugs and labeling agents during the time-lapse imaging.

live BHK-21 cells [3] = conditions: statement of general knowledge, explained by the kinetic assay; cited from earlier work
[4] = apoptotic hamster kidney cells, endpoint assay

| Compound | LFI (lipofuscin fluorescence independence extent) ([1]; in vitro hamster kidney cells, endpoint assay, control 32%) | cytotoxicity sensed in real-time by 4PIF (live BHK-21 cells [2]; at a high concentration, transient exposure) | rise in FAD* coinciding with sudden decrease in ETC (live BHK-21 cells [2]; both BAM15 concentrations, kinetic assay) | induced FAD* in cytoplasm, BAM15 compared with FCCP (live BHK-21 cells [2]; comparative kinetic assays) | cellular uptake by endocytosis via THG-visible nanovesicles (live BHK-21 cells [2]) | toxicity in mitochondrial uncoupling, compared with FCCP (live BHK-21 cells [3]) | LFI versus treatment-free control [1, 4] | ORR (optical redox ratio) versus treatment-free control [1, 4] | LFR (LOP-to-FAD ratio) ([1]; in vitro STS-induced apoptosis confirmed by single-cell morphological change) | apoptosis via modified cell morphology ([1]; in vitro hamster kidney cells, endpoint assay, different fields) | 3PIF (NADH) in 6-color profile ([1]; in vitro hamster kidney cells, label-free biomarker of apoptosis) | color through which cells respond (live BHK-21 cells [2]; transient exposure, kinetic assay) |
| --- | --- | --- | --- | --- | --- | --- | --- | --- | --- | --- | --- | --- |
| Fc1ccccc1Nc1nc2nonc2nc1Nc1ccccc1F [BAM15] | 44% | confirmed | ~10 fold | surprisingly larger | might enable cellular uptake | less toxic than FCCP |  |  |  |  |  |  |
| N#CC(C#N)=NNc1ccc(OC(F)(F)F)cc1 [FCCP] |  |  |  |  | not |  |  |  |  |  |  |  |
| CN[C@@H]1C[C@H]2O[C@@](C)([C@@H]1OC)n1c3ccccc3c3c4c(c5c6ccccc6n2c5c31)C(=O)NC4 [STS, staurosporine] |  |  |  |  |  |  | retained a low LFI | reduced ORR | increase in LFR | induced apoptosis | peaked | 3PIF/NADH but not THG |

From patent publication US20250271361A1, “SUPERCONTINUUM INTRINSIC FLUORESCENCE IMAGING” (The Board of Trustees of the University of Illinois, priority 2024, published 2025)
